The text below walks through data of US20090325947A1, “NITRATE ESTERS OF PIPERIDINES” (priority 2006, published 2009).

This assay concerns phenylephrine-precontracted vessels (thoracic aorta or femoral vein rings). Description: in vitro vascular reactivity test: relaxation of phenylephrine-precontracted aorta or vein rings. Conditions: at 100 μM; relative to phenylephrine (0.1 μM)-induced contractile tone.

Excerpt: The determination of the nitrogen monoxide-releasing properties of a compound, be it by enzymatic or non-enzymatic action, can be carried out by means of in vitro vascular reactivity tests. The in vitro vascular reactivity test measures the ability of the released nitrogen monoxide to relax a pretensioned aorta ring or vein ring which is kept in an organ chamber. […] The thoracic aorta or the femoral vein is isolated from sacrificed and exsanguinated Wistar rats and cut up to give rings 2 mm long. The vascular rings are stored in organ chambers. Changes in the development of tension after the action of compounds are recorded by an isometric signal transmitter, which is connected to a computerized detection system. The computer program analyses time curves, period and size amounts between contractions.

With `COCCCN1CCOc2ccc(CO[C@H]3CNC[C@@H](OC[C@@H](C)O[N+](=O)[O-])[C@@H]3c3ccc(COCCOC)cc3)cc21` [Example 6], the “relaxation, percentage of the maximal vessel relaxation achieved with sodium nitroprusside (SNP)” value amounted to 15%.
As for `COCCCN1CCOc2ccc(CO[C@H]3CNC[C@@H](O[N+](=O)[O-])[C@@H]3c3ccc(COC[C@@H](C)COC)cc3)cc21` [Example 9, 6-{(3R,4R,5S)-4-[4-((S)-3-Methoxy-2-methylpropoxy-methyl)phenyl]-5-nitrooxypiperidin-3-yloxy-methyl}-4-(3-methoxypropyl)-3,4-dihydro-2H-benzo-[1,4]oxazine], the figure is 8%; as for `COCCCN1CCOc2ccc(CO[C@H]3CNC[C@@H](OC[C@H](COC)O[N+](=O)[O-])[C@@H]3c3ccc(COC[C@@H](C)COC)cc3)cc21` [Example 34, 6-[(3R,4R,5S)-4-[4-((S)-3-Methoxy-2-methylpropoxy-methyl)phenyl]-5-((S)-3-methoxy-2-nitrooxy-propoxy)piperidin-3-yloxymethyl]-4-(3-methoxy-propyl)-3,4-dihydro-2H-benzo[1,4]oxazine], 8%.
As for `COCCCN1CCOc2ccc(CO[C@H]3CNC[C@@H](OC[C@H](O)CO[N+](=O)[O-])[C@@H]3c3ccc(COC[C@@H](C)COC)cc3)cc21` [Example 8, (S)-1-{(3S,4R,5R)-4-[4-((S)-3-Methoxy-2-methyl-Propoxymethyl)phenyl]-5-[4-(3-methoxypropyl)-3,4-dihydro-2H-benzo[1,4]oxazin-6-ylmethoxy]-piperidin-3-yloxy}-3-nitrooxypropan-2-ol], the figure is 20%; as for `COCCCN1CCOc2ccc(CO[C@H]3CNC[C@@H](OC[C@@H](COC)O[N+](=O)[O-])[C@@H]3c3ccc(COC[C@@H](C)COC)cc3)cc21` [Example 14], 25%.
As for `COCCCN1CCOc2ccc(CO[C@H]3CNC[C@@H](CO[N+](=O)[O-])[C@@H]3c3ccc(COC[C@@H](C)COC)cc3)cc21` [Example 21, 6-{(3R,4R,5S)-4-[4-((S)-3-Methoxy-2-methyl-propoxymethyl)phenyl]-5-nitro-oxymethylpiperidin-3-yloxymethyl}-4-(3-methoxypropyl)-3,4-dihydro-2H-benzo[1,4]oxazine], the figure is 20%.
